Measurements taken from PubChem BioAssay AID720587 (Broad Institute, 2013).
Where “and” joins values, the source holds several entries; their conditions need not be identical. Equal entries are not always repeated.

The compounds below were run on A673 Ewing sarcoma viability, CellTiter-Glo ATP luminescence, 72 h (assay: A673 Ewing sarcoma viability loss – cell-based, CellTiter-Glo luminescence, cherry-pick retest, confirmation (AID 720587)).

| SMILES | AC35 |
| --- | --- |
| O=C1c2ccc3c4c(ccc(c24)C(=O)N1c1cccc(O)c1)C(=O)N(c1cccc(O)c1)C3=O | 2.47 µM |
| C[C@@H]1CN([C@@H](C)CO)S(=O)(=O)c2ccc(C#Cc3ccncc3)cc2O[C@H]1CN(C)S(=O)(=O)c1ccccc1 | 12.4 µM |
| C=C1C(=O)OC2C1CCC(C)C1(O)C=CC(=O)C21C (stereo unspecified) | 6.43 µM |
| CCN(Cc1ccccc1)c1ccc(/C=N/N=C(N)N)cc1 | 6.3 µM |
| C[C@H]1CN([C@@H](C)CO)C(=O)c2cc(NC(=O)C3CCCCC3)ccc2O[C@H]1CN(C)Cc1ccc(C(=O)Nc2ccccc2N)cc1 | 11.5 µM |
| CC(=O)Oc1ccc(-c2ccc(C(=O)Nc3cccc(S(=O)(=O)N4CCOCC4)c3)cc2)cc1 | 15.3 µM |
| COC(=O)C[C@@H]1CC[C@@H]2[C@H](COc3ccc(NC(=O)Nc4cccc(Cl)c4)cc3C(=O)N2C)O1 | 12.5 µM |
| C(=Cc1c[nH]c2ccccc12)c1ccc2ccccc2n1 | 1.16 µM |
| N#CC1=C(N)Oc2cc(N)ccc2C1c1cccc(F)c1 (stereo unspecified) | 3.12 µM |
| CC(=O)OC1CC2(O)C3CCC4CC(O)CCC4(C)C3CCC2(C)C1C1=CC(=O)OC1 (stereo unspecified) | 0.213 µM |
| O=C(NC1CCCC1)N1CCCCN2[C@@H](CO)[C@@H](c3ccc(/C=C/c4ccccc4)cc3)[C@@H]2C1 | 7.8 µM |
| O=C(NCc1ccc(F)cc1)N1[C@H]2CC[C@@H]1C=C(c1ccc(F)cc1OCc1ccccc1)C2 | 1.89 µM |
| CCc1ccc(/C=C2\SC(=S)N(CCCC(=O)NCCCN3CCOCC3)C2=O)cc1 | 18.7 µM |
| c1ccc(Nc2nnc(-c3ccc4c(c3)OCO4)o2)cc1 | 11.9 µM |
| C[C@@H]1CN([C@H](C)CO)S(=O)(=O)c2ccc(C#CC(C)(C)O)cc2O[C@H]1CN(C)Cc1ccc(-c2ccccc2)cc1 | 7.19 µM |
| Cc1ccc(C(=O)O/N=C(\N)c2ccccn2)cc1 | 17.7 µM |
| COc1ccc(S(=O)(=O)N2CC[C@@H]3[C@H](CO)Nc4ccc(-c5ccc(C#N)cc5)cc4[C@@H]32)cc1 | 4.23 µM |
| C[C@@H]1CN([C@H](C)CO)C(=O)c2cc(C#CCN(C)C)cnc2O[C@H]1CN(C)Cc1ccc(-c2ccccc2)cc1 | 10.2 µM |
| COc1ccc(CCCNC(=O)C2Cc3c(-c4ccc5c(c4)OCO5)ccnc3O2)cc1 (stereo unspecified) | 15.8 µM |
| CCOc1cc2[nH]c(=S)n(Cc3ccc(C(=O)N4CCN(C)CC4)cc3)c(=O)c2cc1OCC | 19.9 µM |
| C[C@H]1CN([C@@H](C)CO)C(=O)Cc2cc(NC(=O)CCCCCC(=O)Nc3ccccc3N)ccc2O[C@H]1CN(C)Cc1ccc(C(F)(F)F)cc1 | 12.5 µM |
| C=C1C(=O)C=C[C@]2(C)C[C@@H]3OC(=O)[C@](C)(O)[C@H]3C[C@@H]12 | 4.67 µM |

| SMILES | AC35 |
| --- | --- |
| COc1ccc(NC(=O)N2CCCCN3[C@H](CO)[C@H](c4ccc(C#CCC(C)C)cc4)[C@H]3C2)cc1 | 6.47 µM |
| CC(C)CC#Cc1ccc([C@@H]2[C@@H](CO)N3CCCCN(S(=O)(=O)c4ccc(F)cc4)C[C@H]23)cc1 | 8.8 µM |
| Cc1nc(N)nc(N)c1/C=C/C(C)(C)c1ccc(Cl)cc1 | < 0.011 µM |
| COC1C(C)OC(OC2CC(C)(O)Cc3cc4c(c(O)c32)C(=O)c2c(O)cc3c(c2C4=O)OC2OC3(C)C(O)C(N(C)C)C2O)C(OC)C1(C)OC (stereo unspecified) | 0.0582 µM |
| CN(Cc1cnc2nc(N)nc(N)c2n1)c1ccc(C(=O)N[C@@H](CCC(=O)O)C(=O)O)cc1 | 0.0191 µM and 0.018 µM |
| Cc1cc(C)cc(C(=O)NC(=S)Nc2ccc(Cc3ccncc3)cc2)c1 | 14.2 µM |
| Nc1ccc(Cn2ccc3c4c(N)nc(N)nc4ccc32)cc1 | 0.0589 µM |
| C[C@H](CO)N1C[C@H](C)[C@@H](CN(C)Cc2ccc(Oc3ccccc3)cc2)Oc2ccc(NS(=O)(=O)c3ccc(Cl)cc3)cc2CC1=O | 16.2 µM |
| Oc1c(Cl)cc(Cl)c(Cl)c1Cc1c(O)c(Cl)cc(Cl)c1Cl | 15.9 µM |
| CC1(C)N=C(N)N=C(N)N1c1ccc(CCCCc2ccccc2)cc1 | 0.65 µM |
| CC(=O)OC1CC(OC2C(O)CC(OC3C(O)CC(OC4CCC5(C)C(CCC6C5CC(O)C5(C)C(C7=CC(=O)OC7)CCC65O)C4)OC3C)OC2C)OC(C)C1OC1OC(CO)C(O)C(O)C1O (stereo unspecified) | 0.244 µM |
| C=CCOc1ccccc1C(=O)/C=C1/C(=O)Nc2ccccc21 | 9.62 µM |
| C[C@H]1CCCCO[C@H](CN(C)Cc2ccc(C(F)(F)F)cc2)[C@@H](C)CN([C@@H](C)CO)C(=O)c2cc(NC(=O)Nc3ccccc3)ccc2O1 | 12.6 µM |
| COc1ccc(C2c3cc4c(cc3OC(NNC(N)=O)C2C)OCO4)cc1 (stereo unspecified) | 12.4 µM |
| C[C@]12CC[C@H](O)C[C@H]1CC[C@@H]1C2CC[C@]2(C)[C@@H](C3=CC(=O)OC3)[C@@H](O)C[C@]12O (stereo partly specified) | 5.27 µM |
| C[C@@H]1CN([C@@H](C)CO)C(=O)c2cc(NS(=O)(=O)c3ccc(Cl)cc3)ccc2O[C@@H]1CN(C)Cc1ccc(C(=O)Nc2ccccc2N)cc1 | 10.7 µM |
| CCN1C/C(=C/c2ccc(OC)c(O)c2)C(=O)/C(=C/c2ccc(OC)c(O)c2)C1 | 11.1 µM |
| O=C1c2ccccc2C(=O)N1CCCCNc1ccccc1 | 10.8 µM |
| C[C@H]1CN([C@@H](C)CO)C(=O)Cc2cc(NC(=O)C3CC3)ccc2O[C@H]1CN(C)S(=O)(=O)c1ccc(Cl)cc1 | 15.6 µM |
| COC(=O)C[C@@H]1CC[C@@H]2[C@H](COc3ccc(NC(=O)Nc4ccc(C#N)cc4)cc3C(=O)N2C)O1 | 23.1 µM |
| COC(=O)C[C@@H]1CC[C@H]2[C@H](COc3ccc(NC(=O)Nc4cc(C)cc(C)c4)cc3C(=O)N2C)O1 | 22.2 µM |
| O=C1/C(=C\c2ccccc2)CN(C(=O)CCN2CCCCC2)C/C1=C/c1ccccc1 | 0.734 µM |

| SMILES | AC35 |
| --- | --- |
| CC(C)(C)c1ccc(Oc2ccc(NC(=O)c3ccccc3C(=O)O)cn2)cc1 | 22.2 µM |
| Nc1nc(N)c(-c2cccc(C(F)(F)F)c2)c(Cc2cccc(C(F)(F)F)c2)n1 | 5.72 µM |
| C[C@@H]1CCCCO[C@H](CN(C)Cc2ccc(C(=O)Nc3ccccc3N)cc2)[C@@H](C)CN([C@@H](C)CO)C(=O)c2cc(NS(=O)(=O)c3ccc(Cl)cc3)ccc2O1 | 8.42 µM |
| C[C@]12CCC3C(CCC4=CC(O)CC[C@@]43/C=N/O)C1(O)CCC2C1=CC(=O)OC1 (stereo partly specified) | 0.569 µM |
| Cc1ccc2c(=O)n3c(nc2c1)C(Cc1ccc(O)cc1)NC(=O)c1cc2ccccc2cc1-3 (stereo unspecified) | 7.13 µM |
| CC(=O)OC1CC(OC2C(O)CC(OC3C(O)CC(OC4CCC5(C)C(CCC6C5CCC5(C)C(C7=CC(=O)OC7)CCC65O)C4)OC3C)OC2C)OC(C)C1OC1OC(CO)C(O)C(O)C1O (stereo unspecified) | 0.105 µM |
| CCC1=Nc2cc(C(=O)NCC3CCCO3)ccc2Sc2ccc(Br)cc21 (stereo unspecified) | 4.39 µM |
| CC(=O)OC1CC(OC2C(O)CC(OC3C(O)CC(OC4CCC5(C)C(CCC6C5CCC5(C)C(C7=CC(=O)OC7)C(O)CC65O)C4)OC3C)OC2C)OC(C)C1OC1OC(CO)C(O)C(O)C1O (stereo unspecified) | 1.26 µM |
| COC(=O)C[C@@H]1CC[C@@H]2[C@@H](COc3ccc(NC(=O)Nc4ccc(C#N)cc4)cc3C(=O)N2C)O1 | 9.7 µM |
| CCc1ccc(N2C=C(C(=O)OC)C(c3ccc(OC)cc3)C(C#N)=C2N)cc1 (stereo unspecified) | 12.5 µM |
| CN(C[C@H]1N[C@@H](CO)[C@@H]1c1ccc(C2=CCCC2)cc1)C(=O)c1cccc(F)c1 | 1.83 µM |
| O=C(N/N=C/c1cnc(N2CCCCC2)s1)c1ccc(C(F)(F)F)cc1 | 13.8 µM |
| COc1cc2oc3cc(C#Cc4ccc(N)cc4)ccc3c(=O)c2cc1OC | 17.4 µM |
| C[C@@H]1CN([C@@H](C)CO)C(=O)Cc2cc(N(C)C)ccc2O[C@H]1CN(C)Cc1ccc(C(=O)Nc2ccccc2N)cc1 | 8.7 µM |
| CN=c1scc(-c2cccs2)n1/N=C/c1ccccc1O | 16.9 µM |
| CN(C)c1ccc2c(c1)[C@@H]1C[C@@H](CC(=O)NCc3ccc(Oc4ccccc4)cc3)O[C@H](CO)[C@@H]1O2 | 12.8 µM |
| O=c1c2ccccc2nc(/C=C/c2cc(Br)ccc2O)n1CCCO | 9.12 µM |
| CN(C)C(=S)N=Nc1[nH]c2ccccc2c1O | 11.1 µM |
| COc1ccc(NC(=O)N2CCCCN3[C@@H](CO)[C@H](c4ccc(C5=CCCCC5)cc4)[C@@H]3C2)cc1 | 10.3 µM |
| CCCCNC(=O)C(c1ccc(OCC(=O)OC)c(C(=O)OC)c1)N(CCOC)C(=O)CCCCCN1C(=O)NC(c2ccc(-c3ccccc3)cc2)C(C(=O)OCc2ccccc2)=C1C (stereo unspecified) | 7.63 µM |
| N#CC1C=Cc2c(ccc3ccccc23)N1C(=O)c1ccccc1 (stereo unspecified) | 9.42 µM |
| CN1C/C(=C/c2ccsc2)C(=O)/C(=C/c2ccsc2)C1 | 8.67 µM |

| SMILES | AC35 |
| --- | --- |
| O=C(Nc1cccc(S(=O)(=O)N2CCCC2)c1)c1ccc(Cl)nc1 | 6.28 µM |
| O=C(Sc1cccc2cccnc12)c1ccccc1Br | 1.17 µM |
| COc1ccc(-c2cnc3c(NC=O)cc(-c4ccccc4OC)cn23)cc1OC | 0.101 µM |
| CC1OC(OC2CC(O)C3(CO)C4C(O)CC5(C)C(C6=CC(=O)OC6)CCC5(O)C4CCC3(O)C2)C(O)C(O)C1O (stereo unspecified) | 0.105 µM |
| COC(=O)C[C@@H]1CC[C@@H]2[C@@H](COc3ccc(NC(=O)Nc4cccc(F)c4)cc3C(=O)N2C)O1 | 13.5 µM |
| C[C@H]1CN([C@@H](C)CO)C(=O)c2cc(N(C)C)ccc2O[C@@H]1CN(C)Cc1ccc(C(=O)Nc2ccccc2N)cc1 | 14.1 µM |
| Nc1ccn([C@@H]2O[C@H](CO)[C@@H](O)C2O)c(=O)n1 (stereo partly specified) | 0.448 µM |
| CN=c1scc(-c2ccccc2F)n1/N=C/c1ccc(O)c(O)c1O | 11.6 µM |
| COc1ccc(/C=C2/NC(=O)N(CC(=O)Nc3cccc(C)c3)C2=O)cc1O | 18.8 µM |
| C[C@H](CO)N1C[C@H](C)[C@H](CN(C)Cc2ccc(Oc3ccccc3)cc2)Oc2ccc(NC(=O)CCCCCC(=O)Nc3ccccc3N)cc2CC1=O | 4.84 µM |
| COc1ccc(/C=C/C(=O)c2ccc(C(=O)/C=C/c3ccc(OC)c(OC)c3)cc2)cc1OC | 5.02 µM |
| COc1ccccc1NC(=O)N1CCCCN2[C@H](CO)[C@H](c3ccc(-c4cccc(C)c4)cc3)[C@H]2C1 | 9.29 µM |
| CCCCNC1=CC(=O)C(=O)c2ccccc21 | 2.77 µM |
| COc1cccc(OC)c1C(=O)Nc1cc(C)nn1-c1nc2ccccc2[nH]1 | 13.2 µM |
| O=C(CCc1ccccc1)NC(c1cccs1)c1cc(Cl)c2cccnc2c1O (stereo unspecified) | 0.694 µM |
| C[C@@H]1O[C@@H](O[C@@H]2C=C3CCC4C(CC[C@]5(C)[C@@H](c6ccc(=O)oc6)CC[C@]45O)[C@@]3(C)CC2)[C@H](O)[C@H](O)[C@H]1O (stereo partly specified) | 0.0136 µM |
| C[C@@H]1CN([C@H](C)CO)C(=O)Cc2cc(N(C)C)ccc2O[C@H]1CN(C)Cc1ccc(C(=O)Nc2ccccc2N)cc1 | 12.7 µM |
| COc1cc(/C=C/C(=O)/C=C(O)/C=C/c2ccc(O)c(OC)c2)ccc1O | 2.13 µM |
| O=c1[nH]c(=O)n([C@H]2C[C@H](O)[C@@H](CO)O2)cc1C(F)(F)F | 4.17 µM |
| C[C@H](CO)N1C[C@H](C)[C@H](CN(C)CC2CCCCC2)Oc2ccc(NC(=O)CCCCCC(=O)Nc3ccccc3N)cc2CC1=O | 10.5 µM |
